Experimental data: ChEMBL document CHEMBL1147033, “Novel selective androgen receptor modulators: SAR studies on 6-bisalkylamino-2-quinolinones” (Bioorg Med Chem Lett, 2007)

Key:
Androgen receptor [1] = biological target: T1, Androgen receptor (Homo sapiens, UniProt P10275)
T1 sequence (P10275 whole entry): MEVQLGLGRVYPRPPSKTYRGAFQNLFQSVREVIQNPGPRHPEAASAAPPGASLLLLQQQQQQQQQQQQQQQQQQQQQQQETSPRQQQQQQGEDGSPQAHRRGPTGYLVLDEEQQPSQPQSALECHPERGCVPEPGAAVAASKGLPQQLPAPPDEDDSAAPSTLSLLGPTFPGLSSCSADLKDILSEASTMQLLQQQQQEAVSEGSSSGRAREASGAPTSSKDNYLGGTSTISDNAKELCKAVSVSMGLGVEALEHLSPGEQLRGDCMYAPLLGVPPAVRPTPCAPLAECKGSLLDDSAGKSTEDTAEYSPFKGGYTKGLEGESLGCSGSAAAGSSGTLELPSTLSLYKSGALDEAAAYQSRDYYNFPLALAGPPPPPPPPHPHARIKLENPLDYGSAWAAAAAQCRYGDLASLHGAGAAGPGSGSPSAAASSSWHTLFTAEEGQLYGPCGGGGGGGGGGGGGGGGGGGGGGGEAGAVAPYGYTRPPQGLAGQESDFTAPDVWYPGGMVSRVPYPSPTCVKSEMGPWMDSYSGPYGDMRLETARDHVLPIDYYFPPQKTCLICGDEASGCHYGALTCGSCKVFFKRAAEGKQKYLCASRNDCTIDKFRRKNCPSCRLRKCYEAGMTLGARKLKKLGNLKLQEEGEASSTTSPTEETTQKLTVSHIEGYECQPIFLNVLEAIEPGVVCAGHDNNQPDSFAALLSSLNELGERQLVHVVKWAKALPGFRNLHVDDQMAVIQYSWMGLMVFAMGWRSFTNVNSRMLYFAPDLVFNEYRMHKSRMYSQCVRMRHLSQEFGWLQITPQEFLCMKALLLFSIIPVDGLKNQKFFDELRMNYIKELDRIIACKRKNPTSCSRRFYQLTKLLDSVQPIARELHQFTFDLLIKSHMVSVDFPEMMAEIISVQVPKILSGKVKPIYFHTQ
Description: Binding affinity to human AR

Androgen receptor [2] = biological target: T1, Androgen receptor; remark: listed apart in the source
Description: Antagonist activity at human AR

Androgen receptor [3] = biological target: T1, Androgen receptor; remark: listed apart in the source
Description: Agonist activity at human AR

O=c1cc(C(F)(F)F)c2cc(N(Cc3ccccc3)CC(F)(F)F)ccc2[nH]1
Ki (Androgen receptor [1]): 79 nM
IC50 (Androgen receptor [2]): > 10000 nM
EC50 (Androgen receptor [3]): 27 nM
